Reference: ChEMBL document CHEMBL4819145, “Synthesis and evaluation of bifunctional PTP4A3 phosphatase inhibitors activating the ER stress pathway” (Bioorg Med Chem Lett, 2021)
Blank lines part the entries; values can stand above or below the compound they belong to. Active and inactive are the calls of the source. No cut-off for these calls is given here.

Columns and labels:
MDA-MB-231 [1] = test: Cytotoxicity against JMS-053-pretreated human MDA-MB-231 cells at 20 to 60 uM measured after 72 hrs by CellTiter-Glo assay; assay type: functional, cell-based; conditions: dose 20-60 µM
MDA-MB-231 [2] = test: cells; conditions: Homo sapiens, MDA-MB-231, 72 h
MDA-MB-231 [3] = test: Induction of ER stress in human MDA-MB-231 cells assessed as increase in DDIT3 mRNA expression at 2 mM measured after 2 hrs by qPCR method; assay type: functional, cell-based
MDA-MB-231 [4] = test: Induction of ER stress in human MDA-MB-231 cells assessed as increase in HSPA5A mRNA expression at 2 mM measured after 2 hrs by qPCR method; assay type: functional, cell-based
MDA-MB-231 [5] = test: Induction of ER stress in human MDA-MB-231 cells assessed as increase in sXbp1 mRNA expression at 2 mM measured after 2 hrs by qPCR method; assay type: functional, cell-based
MDA-MB-231 [6] = test: Induction of ER stress in human MDA-MB-231 cells assessed as increase in sXbp1 mRNA expression at 2XEC50 measured after 6 hrs by qPCR method; assay type: functional, cell-based
[7] = biological target: Dual specificity protein phosphatase 3 (Homo sapiens) (UniProt P51452); test: Inhibition of DUSP3 (unknown origin) at 1 uM
[8] = biological target: T1, M-phase inducer phosphatase 2 (Homo sapiens) (UniProt P30305); test: Inhibition of CDC25B (unknown origin) at 1 uM
T1 sequence (whole entry): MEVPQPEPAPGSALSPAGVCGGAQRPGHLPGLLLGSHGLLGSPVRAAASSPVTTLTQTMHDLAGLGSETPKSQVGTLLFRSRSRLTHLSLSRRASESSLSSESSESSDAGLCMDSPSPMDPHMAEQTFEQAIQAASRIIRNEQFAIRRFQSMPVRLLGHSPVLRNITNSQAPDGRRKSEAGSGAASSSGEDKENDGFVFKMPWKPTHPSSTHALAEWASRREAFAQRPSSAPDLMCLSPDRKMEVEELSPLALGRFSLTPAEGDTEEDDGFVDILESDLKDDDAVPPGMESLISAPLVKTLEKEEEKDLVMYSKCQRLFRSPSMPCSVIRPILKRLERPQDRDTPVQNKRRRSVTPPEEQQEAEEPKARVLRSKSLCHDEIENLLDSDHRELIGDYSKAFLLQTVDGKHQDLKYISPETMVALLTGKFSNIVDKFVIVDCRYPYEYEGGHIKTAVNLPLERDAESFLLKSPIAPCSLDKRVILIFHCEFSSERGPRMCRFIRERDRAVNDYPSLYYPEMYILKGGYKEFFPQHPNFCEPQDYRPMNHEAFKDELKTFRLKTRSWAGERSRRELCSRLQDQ

[9] = biological target: T2, Tyrosine-protein phosphatase non-receptor type 1 (Homo sapiens) (UniProt P18031); test: Inhibition of PTP1B (unknown origin) at 1 uM
T2 sequence (whole entry): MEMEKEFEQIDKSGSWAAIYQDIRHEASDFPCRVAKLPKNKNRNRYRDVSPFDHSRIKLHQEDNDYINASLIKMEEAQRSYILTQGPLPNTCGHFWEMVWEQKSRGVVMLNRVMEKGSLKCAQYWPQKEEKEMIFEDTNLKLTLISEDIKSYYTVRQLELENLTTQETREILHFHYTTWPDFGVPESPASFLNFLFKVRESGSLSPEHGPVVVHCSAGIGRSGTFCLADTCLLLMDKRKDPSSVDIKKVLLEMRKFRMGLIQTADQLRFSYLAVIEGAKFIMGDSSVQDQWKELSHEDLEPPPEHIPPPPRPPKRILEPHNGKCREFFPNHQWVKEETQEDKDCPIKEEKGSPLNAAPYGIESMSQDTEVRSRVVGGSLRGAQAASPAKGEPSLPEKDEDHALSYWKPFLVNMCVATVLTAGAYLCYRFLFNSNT

MDA-MB-231 [10] = test: Induction of ER stress in human MDA-MB-231 cells assessed as increase in HSPA5A mRNA expression at 2XEC50 measured after 6 hrs by qPCR method; assay type: functional, cell-based
MDA-MB-231 [11] = test: Induction of ER stress in human MDA-MB-231 cells assessed as increase in DDIT3 mRNA expression at 2XEC50 measured after 6 hrs by qPCR method; assay type: functional, cell-based

Sequence of Dual specificity protein phosphatase 3 (Homo sapiens) (P51452 whole entry, looked up): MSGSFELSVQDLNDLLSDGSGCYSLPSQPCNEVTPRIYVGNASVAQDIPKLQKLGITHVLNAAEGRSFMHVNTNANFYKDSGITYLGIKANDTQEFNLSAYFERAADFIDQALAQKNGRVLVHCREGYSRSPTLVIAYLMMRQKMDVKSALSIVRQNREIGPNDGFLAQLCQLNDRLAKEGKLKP

Structure (SMILES): O=C(CC12CC3CC(CC(C3)C1)C2)NCCCCO
- Activity (MDA-MB-231 [1]): inactive
- EC50 (MDA-MB-231 [2]): > 50 µM

Structure (SMILES): OC(CS)C(O)CS (stereo unspecified)
- Activity (MDA-MB-231 [3]): Active
- Activity (MDA-MB-231 [4]): Active
- Activity (MDA-MB-231 [5]): Active

- inhibition [7]: < 11%
- inhibition [8]: < 11%
- inhibition [9]: < 11%
Structure (SMILES): N=C1C(=O)NC(=O)c2cc(-c3ccc(OCCCCNC(=O)CC45CC6CC(CC(C6)C4)C5)cc3)sc21
- Activity (MDA-MB-231 [6]): Active
- Activity (MDA-MB-231 [10]): Active
- Activity (MDA-MB-231 [11]): Active
